Experimental findings from patent US20260256807A1, “SUBSTITUTED PYRAZOLES AND IMIDAZOLES AS OREXIN RECEPTOR ANTAGONISTS COMPOSITION, METHODS FOR TREATING NEUROLOGICAL AND PSYCHOLOGICAL DISORDERS” (HAGER BIOSCIENCES, LLC, priority 2022, published 2026) are described below.

Assay [1] deals with T1, human orexin-1 receptor (Homo sapiens, UniProt O43613).
T1 construct: expressed in transfected cells; host or cells: CHO cells (G418 selection)
T1 sequence (O43613 1-425): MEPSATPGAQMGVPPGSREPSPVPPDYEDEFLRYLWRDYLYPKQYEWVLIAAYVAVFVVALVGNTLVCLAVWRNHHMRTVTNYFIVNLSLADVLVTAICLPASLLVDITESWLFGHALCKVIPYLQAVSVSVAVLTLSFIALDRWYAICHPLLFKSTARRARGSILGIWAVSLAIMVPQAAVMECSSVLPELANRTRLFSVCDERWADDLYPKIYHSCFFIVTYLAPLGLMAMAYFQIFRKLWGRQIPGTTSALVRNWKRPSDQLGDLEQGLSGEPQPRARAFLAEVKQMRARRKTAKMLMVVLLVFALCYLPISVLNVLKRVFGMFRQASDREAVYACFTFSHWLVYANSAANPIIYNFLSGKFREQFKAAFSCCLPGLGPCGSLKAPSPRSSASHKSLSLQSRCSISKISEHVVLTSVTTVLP
Put plainly: Intracellular calcium (FLIPR) antagonist assay, CHO cells expressing human orexin-1 receptor, 3 nM orexin-A. Format: cell-based. The following applies: 1 uM compound, orexin-A 3 nM; for inhibition at 1 µM: CHO, read-out: OXIR % Inh. @ 1 uM. The method, then:
(§1) Antagonistic activities on both orexin receptors (i.e., to identify Orexin Receptor Antagonists) have been measured for each example compound using the in vitro assays (intracellular calcium measurements) as described herein. Other assays may also be used to identify Orexin Receptor Antagonists as would be understood by those of ordinary skill in the art. Chinese hamster ovary (CHO) cells expressing the human orexin-1 receptor and the human orexin-2 receptor, respectively, are grown in culture medium (Ham F-12 with L-Glutamine) containing 300 μg/mL G418, 100 U/mL penicillin, 100 μg/mL streptomycin and 10% heat inactivated fetal calf serum (FCS). The cells are seeded at 20′000 cells/well into 384-well black clear bottom sterile plates (Greiner). The seeded plates are incubated overnight at 37° C. in 5% CO2. Human orexin-A as an agonist is prepared as 1 mM stock solution in MeOH: water (1:1), diluted in HBSS containing 0.1% bovine serum albumin (BSA), NaHC03: 0.375 g/L and 20 mM HEPES for use in the assay at a final concentration of 3 nM.
(§2) Antagonists were prepared as 10 mM stock solution in DMSO, then diluted in 384-well plates using DMSO followed by a transfer of the dilutions into in HBSS containing 0.1% bovine serum albumin (BSA), NaHC03: 0.375 g/L and 20 mM HEPES. On the day of the assay, 50 μL of staining buffer (HBSS containing 1% FCS, 20 mM HEPES, NaHC03: 0.375 g/L, 5 mM probenecid (Sigma) and 3 μM of the fluorescent calcium indicator fluro-4 AM (1 mM stock solution in DMSO, containing 10% pluronic) is added to each well. The 384-well cell-plates are incubated for 50 min at 37° C. in 5% C02 followed by equilibration at RT for 30 min before measurement. Within the Fluorescent Imaging Plate Reader (FLIPR Tetra, Molecular Devices), potential Orexin Receptor Antagonists were added to the plate in a volume of 10 μl/well, incubated for 120 min and finally 10 μL/well of agonist is added. Fluorescence was measured for each well at 1 second intervals, and the height of each fluorescence peak compared to the height of the fluorescence peak induced by 3 nM orexin-A with vehicle in place of antagonist. The IC50 value (the concentration of compound needed to inhibit 50% of the agonistic response) was determined and normalized using the obtained IC50 value of an on-plate reference compound. Optimized conditions were achieved by adjustment of pipetting speed and cell splitting regime. The calculated IC50 values fluctuate depending on the daily cellular assay performance, as is known to those skilled in the art. In the case where IC50 values have been determined several times for the same compound, the geometric mean has been given.
A general note: A change in cytosolic calcium serves as a functional read-out for many receptors and channels.

In assay [2] the target is T2, human orexin-2 receptor (Homo sapiens, UniProt O43614).
T2 construct: expressed in transfected cells; host or cells: CHO cells (G418 selection)
T2 sequence (O43614 1-444): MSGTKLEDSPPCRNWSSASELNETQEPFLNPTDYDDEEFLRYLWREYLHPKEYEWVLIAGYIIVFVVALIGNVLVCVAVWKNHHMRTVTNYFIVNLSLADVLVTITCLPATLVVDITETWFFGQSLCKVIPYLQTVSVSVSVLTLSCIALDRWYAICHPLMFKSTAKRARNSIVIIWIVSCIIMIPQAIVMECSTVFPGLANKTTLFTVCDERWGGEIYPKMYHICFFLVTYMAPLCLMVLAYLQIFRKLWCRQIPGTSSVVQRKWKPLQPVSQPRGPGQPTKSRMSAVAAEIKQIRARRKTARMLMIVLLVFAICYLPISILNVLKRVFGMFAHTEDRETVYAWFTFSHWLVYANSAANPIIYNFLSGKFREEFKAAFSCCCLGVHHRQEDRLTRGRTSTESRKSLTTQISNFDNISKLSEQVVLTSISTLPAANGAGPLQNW
Briefly: Intracellular calcium (FLIPR) antagonist assay, CHO cells expressing human orexin-2 receptor, 3 nM orexin-A. Format: cell-based. The following applies: 1 uM compound, orexin-A 3 nM; for inhibition at 1 µM: CHO, read-out: OX2R % Inh. @ 1uM. The protocol:
as §1, §2

With `Cc1cc(C)nc(N2CC3CN(C(=O)c4c(-c5ccccc5)nc5cc(C(F)(F)F)ccn45)CC3C2)n1` (centres unmarked) [Example 37], the inhibition at 1 µM in assay [1] amounted to 5.33%; in assay [2] it was 46.9%.

Take `Cc1cc(C)nc(N2CC3CN(C(=O)c4ccccc4-c4cnc5ccccn45)CC3C2)n1` (centres unmarked) [Example 38]: the figures for the inhibition at 1 µM in assay [1] and in assay [2] were 6.86% and 3.32%, respectively.

Turning to `Cc1cc(C)nc(N2CC3CN(C(=O)c4c(-c5ccc(F)cc5)nn5c4COCC5)CC3C2)n1` (centres unmarked) [Example 39], the inhibition at 1 µM in assay [1] was 14.9%. Also, the “OX2R % Inh. @ 1uM” value in assay [2] came out at 29.13%.

Take `Cc1cc(C)nc(N2CC3CN(C(=O)c4c(-c5ccc(F)cc5)nn5c4COCC5)CC3C2)n1` (centres unmarked) [Example 40]: the “OXIR % Inh. @ 1 uM” value in assay [1] was 11.58%. For the same molecule, the “OX2R % Inh. @ 1uM” value in assay [2] is reported as 7.18%.

With `Cc1cc(C)nc(N2CC3CN(C(=O)c4c(-c5ccccc5)nn5c4COCC5)CC3C2)n1` (centres unmarked) [Example 41], the inhibition at 1 µM in assay [1] was 6%; in assay [2], 11.5%.

As to `Cc1cc(C)nc(N2CC3CN(C(=O)C4C(c5ccccc5)=NN5C=CC=CC45)CC3C2)n1` (centres unmarked) [Example 42], the inhibition at 1 µM in assay [1] is 40.4%; in assay [2] it was 68%.

For the molecule `Cc1cc(C)nc(N2CC3CN(C(=O)c4c(-c5ccccc5)nc5ccccn45)CC3C2)n1` (centres unmarked) [Example 43], the inhibition at 1 µM in assay [1] was determined as 19.6%; in assay [2], 38.4%.

Regarding `Cc1cc(C)nc(N2CC3CN(C(=O)c4c(-c5ccccc5F)nn5ccccc45)CC3C2)n1` (centres unmarked) [Example 44], the inhibition at 1 µM in assay [1] is 19.2%; in assay [2], 56.1%.

As for `O=C(c1c(-c2ccccc2F)nn2ccccc12)N1CC2CN(c3ccc(C(F)(F)F)cn3)CC2C1` (centres unmarked) [Example 45], the inhibition at 1 µM stood at 78.2% in assay [1] and 27.1% in assay [2].

Turning to `O=C(c1c(-c2ccc(F)cc2)nn2ccccc12)N1CC2CN(c3ccc(C(F)(F)F)cn3)CC2C1` (centres unmarked) [Example 46], the inhibition at 1 µM stood at 53.9% in assay [1] and 14.6% in assay [2].

For the molecule `O=C(c1c(-c2ccccc2F)nn2ccccc12)N1CC2CN(c3nc4cc(Cl)ccc4o3)CC2C1` (centres unmarked) [Example 47], the figures for the inhibition at 1 µM in assay [1] and in assay [2] were 97% and 89%, respectively.

As for `O=C(c1c(-c2ccc(F)cc2)nn2ccccc12)N1CC2CN(c3nc4cc(Cl)ccc4o3)CC2C1` (centres unmarked) [Example 48], the inhibition at 1 µM in assay [1] was found to be 87.1%; in assay [2] it was 63.2%.

Consider `Cc1cc(C)nc(N2CC3CN(C(=O)c4c(-c5ccccc5F)nn5c4COCC5)CC3C2)n1` (centres unmarked) [Example 49], for which the inhibition at 1 µM in assay [1] is -5.54%; in assay [2], 12.8%.

Take `O=C(c1c(-c2ccccc2F)nn2c1COCC2)N1CC2CN(c3ccc(C(F)(F)F)cn3)CC2C1` (centres unmarked) [Example 50]: the inhibition at 1 µM in assay [1] stood at 9.55%; in assay [2] it was 1.62%.

For the molecule `O=C(c1c(-c2ccccc2F)nn2c1COCC2)N1CC2CN(c3nc4cc(Cl)ccc4o3)CC2C1` (centres unmarked) [Example 51], the results for the inhibition at 1 µM in assay [1] and in assay [2] were 38.5% and 24.3%, respectively.

As to `C[C@@H]1CCN(c2nc3cc(Cl)ccc3o2)CCN1C(=O)c1c(-c2ccccc2F)nn2ccccc12` [Example 52], the inhibition at 1 µM in assay [1] came to 100%; in assay [2], 98.7%.

`C[C@@H]1CCN(c2ccc(C(F)(F)F)cn2)CCN1C(=O)c1c(-c2ccccc2F)nn2ccccc12` [Example 53]: the inhibition at 1 µM amounted to 102% in assay [1] and 98.8% in assay [2].

As for `Cc1cc(C)nc(N2CC[C@@H](C)N(C(=O)c3c(-c4ccccc4F)nn4ccccc34)CC2)n1` [Example 54], the inhibition at 1 µM in assay [1] stood at 91.9%; in assay [2] it was 99.7%.

As for `C[C@@H]1CCN(c2ccc(C(F)(F)F)cn2)CCN1C(=O)c1nc2ccccn2c1-c1ccccc1` [Example 55], the values for the inhibition at 1 µM in assay [1] and in assay [2] were 97% and 37%, respectively.

Consider `C[C@@H]1CCN(c2nc3cc(Cl)ccc3o2)CCN1C(=O)c1nc2ccccn2c1-c1ccccc1` [Example 56], for which the inhibition at 1 µM in assay [1] was found to be 97%; in assay [2] it was 27%.

Consider `C[C@@H]1CCN(c2nc3cc(Cl)ccc3o2)CCN1C(=O)c1nn2c(c1-c1ccccc1)COCC2` [Example 57], for which the values for the inhibition at 1 µM in assay [1] and in assay [2] were 98% and 28%, respectively.

In the case of `C[C@@H]1CCN(c2ccc(C(F)(F)F)cn2)CCN1C(=O)c1nn2c(c1-c1ccccc1)COCC2` [Example 58], the inhibition at 1 µM in assay [1] turned out to be 94%; in assay [2], 30%.

As to `C[C@@H]1CCN(c2nc3cc(Cl)ccc3o2)CCN1C(=O)c1nn2c(c1-c1ccccc1)OCCC2` [Example 59], the inhibition at 1 µM was determined as 99% in assay [1] and 97% in assay [2].

For `C[C@@H]1CCN(c2ccc(C(F)(F)F)cn2)CCN1C(=O)c1nn2c(c1-c1ccccc1)OCCC2` [Example 60], the inhibition at 1 µM in assay [1] was 97%; in assay [2] it was 81%.

For `C[C@@H]1CCN(c2nc3cc(Cl)ccc3o2)CCN1C(=O)c1c(-c2ncccn2)nn2ccccc12` [Example 61], the inhibition at 1 µM in assay [1] was 100%; in assay [2], 64%.

Regarding `C[C@@H]1CCN(c2ccc(C(F)(F)F)cn2)CCN1C(=O)c1c(-c2ncccn2)nn2ccccc12` [Example 62], the inhibition at 1 µM in assay [1] worked out at 100%; in assay [2], 44%.

With `C[C@@H]1CCN(c2nc3cc(Cl)ccc3o2)CCN1C(=O)c1c(-c2ccccn2)nn2ccccc12` [Example 63], the values for the inhibition at 1 µM in assay [1] and in assay [2] were 100% and 96%, respectively.

With `C[C@@H]1CCN(c2ccc(C(F)(F)F)cn2)CCN1C(=O)c1c(-c2ccccn2)nn2ccccc12` [Example 64], the inhibition at 1 µM amounted to 100% in assay [1] and 85% in assay [2].

With `C[C@@H]1CCN(c2nc3cc(Cl)ccc3o2)CCN1C(=O)c1c(-c2ccccc2)nn2cccnc12` [Example 65], the results for the inhibition at 1 µM in assay [1] and in assay [2] were 99% and 80%, respectively.

Turning to `C[C@@H]1CCN(c2ccc(C(F)(F)F)cn2)CCN1C(=O)c1c(-c2ccccc2)nn2cccnc12` [Example 66], the inhibition at 1 µM in assay [1] was found to be 99%; in assay [2], 83%.

For the molecule `C[C@@H]1CCN(c2nc3cc(Cl)ccc3o2)CCN1C(=O)c1nn2cccnc2c1-c1ccccc1` [Example 67], the inhibition at 1 µM in assay [1] was 99%; in assay [2], 80%.

As for `C[C@@H]1CCN(c2ccc(C(F)(F)F)cn2)CCN1C(=O)c1nn2cccnc2c1-c1ccccc1` [Example 68], the figures for the inhibition at 1 µM in assay [1] and in assay [2] were 100% and 68%, respectively.

For `Cc1cc(C)nc(N2CC[C@@H](C)N(C(=O)c3nc4ccccn4c3-c3ccccc3)CC2)n1` [Example 69], the inhibition at 1 µM in assay [1] was found to be 23%; in assay [2], 34%.

`Cc1cc(C)nc(N2CC[C@@H](C)N(C(=O)c3nn4c(c3-c3ccccc3)COCC4)CC2)n1` [Example 70]: the results for the inhibition at 1 µM in assay [1] and in assay [2] were 27% and 44%, respectively.
